Experimental data from patent US9884063B2, “Amido-substituted azole compounds” (Bayer Pharma Aktiengesellschaft, priority 2014, dated 2018).
pIC50: −log10 of the molar value.

How the values were obtained:
[1] = molecular target: T1, TNKS2 (Homo sapiens, UniProt Q9H2K2); assay: Modified TNKS2 Assay 2 (auto-parsylation, [3H]-NAD+ SPA); type: biochemical; details: 6 nM TNKS2, 96 well
T1 sequence (Q9H2K2 1-1166): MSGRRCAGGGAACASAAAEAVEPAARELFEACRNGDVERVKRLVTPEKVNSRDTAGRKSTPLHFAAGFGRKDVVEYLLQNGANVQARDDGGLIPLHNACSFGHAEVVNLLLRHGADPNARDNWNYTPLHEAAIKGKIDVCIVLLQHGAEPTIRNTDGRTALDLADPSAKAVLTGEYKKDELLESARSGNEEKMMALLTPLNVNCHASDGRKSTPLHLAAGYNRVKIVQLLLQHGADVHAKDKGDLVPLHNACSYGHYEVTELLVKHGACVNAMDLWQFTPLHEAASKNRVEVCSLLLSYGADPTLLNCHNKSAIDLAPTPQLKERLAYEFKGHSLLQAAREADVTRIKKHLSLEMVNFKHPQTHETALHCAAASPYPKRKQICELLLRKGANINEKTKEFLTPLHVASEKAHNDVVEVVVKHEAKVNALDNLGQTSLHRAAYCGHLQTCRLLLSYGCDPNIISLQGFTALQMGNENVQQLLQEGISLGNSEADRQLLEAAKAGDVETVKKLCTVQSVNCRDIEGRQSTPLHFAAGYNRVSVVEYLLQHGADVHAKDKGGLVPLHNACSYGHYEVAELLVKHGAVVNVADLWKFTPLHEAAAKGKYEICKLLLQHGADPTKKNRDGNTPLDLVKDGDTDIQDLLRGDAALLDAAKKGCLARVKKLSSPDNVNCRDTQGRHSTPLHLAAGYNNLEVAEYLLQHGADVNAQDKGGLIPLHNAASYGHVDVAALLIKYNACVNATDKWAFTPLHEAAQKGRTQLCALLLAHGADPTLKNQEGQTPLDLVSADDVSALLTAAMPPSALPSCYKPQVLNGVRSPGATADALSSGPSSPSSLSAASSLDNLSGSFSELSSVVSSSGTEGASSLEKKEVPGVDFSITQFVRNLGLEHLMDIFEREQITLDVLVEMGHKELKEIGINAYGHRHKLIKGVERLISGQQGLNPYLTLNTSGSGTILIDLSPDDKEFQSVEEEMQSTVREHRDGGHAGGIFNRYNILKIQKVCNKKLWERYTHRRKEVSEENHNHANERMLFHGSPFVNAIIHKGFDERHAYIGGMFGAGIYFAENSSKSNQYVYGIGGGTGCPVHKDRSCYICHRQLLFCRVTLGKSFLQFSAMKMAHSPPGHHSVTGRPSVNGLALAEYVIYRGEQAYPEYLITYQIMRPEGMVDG

[2] = test system: wildtype Wnt signaling cascade; assay: HEK293 TOP Assay (Super TopFlash luciferase reporter, Wnt-3a stimulated); type: cell-based; details: Homo sapiens, HEK293, 16 h, HEK293 TOP reporter cell line, Wnt-3a at EC50, 16 hours incubation, compound dilution series 50 μM to 15 nM
Method in brief: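 HEK293 cells stably carrying Super TopFlash (TOP) or FOP reporter, stimulated with recombinant human Wnt-3a (2500–5 ng/ml, two-fold steps). Both lines incubated in parallel with compound from 50 μM to 15 nM (3.16-fold) in CAFTY buffer pH 7.4 with 2 mM Ca2+ and 0.01% BSA; selectivity judged TOP vs FOP.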

Row | pIC50 [1] | pIC50 [2] | Structure (SMILES)
1 | 6.70 | 6.34 | O=C(Nc1ccc(NC(=O)c2nc[nH]c2C(=O)NCC2CCOCC2)cc1)c1ccc(F)cc1Cl [Example 397, N^5-{4-[(2-chloro-4-fluorobenzoyl)amino]phenyl}-N^4-(tetrahydro-2H-pyran-4-ylmethyl)-1H-imidazole-4,5-dicarboxamide]
2 | 7.00 | 6.15 | O=C(Nc1ccc(NC(=O)c2[nH]cnc2C(=O)NCCc2cccnc2)cc1)c1ccc(F)cc1Cl [Example 405, N^5-{4-[(2-chloro-4-fluorobenzoyl)amino]phenyl}-N^4-[2-(pyridin-3-yl)ethyl]-1H-imidazole-4,5-dicarboxamide]
3 | 7.05 | 6.15 | CCN1CCC[C@@H]1CNC(=O)c1nc[nH]c1C(=O)Nc1ccc(NC(=O)c2ccc(F)cc2Cl)cc1 [Example 413, N^5-{4-[(2-chloro-4-fluorobenzoyl)amino]phenyl}-N^4-{[(2R)-1-ethylpyrrolidin-2-yl]methyl}-1H-imidazole-4,5-dicarboxamide]
4 | 7.10 | 6.25 | CN1CCN(CC(C)(C)CNC(=O)c2nc[nH]c2C(=O)Nc2ccc(NC(=O)c3ccc(F)cc3Cl)cc2)CC1 [Example 415, N^5-{4-[(2-chloro-4-fluorobenzoyl)amino]phenyl}-N^4-[2,2-dimethyl-3-(4-methylpiperazin-1-yl)propyl]-1H-imidazole-4,5-dicarboxamide]
